Measured values from ChEMBL document CHEMBL1132254, “Pharmacophore development for corticotropin-releasing hormone: new insights into inhibitor activity” (J Med Chem, 1999).
pKi: −log10 of the molar value.

Target: T1, Corticotropin-releasing factor receptor 1 (Homo sapiens, UniProt P34998)
T1 sequence (P34998 whole entry): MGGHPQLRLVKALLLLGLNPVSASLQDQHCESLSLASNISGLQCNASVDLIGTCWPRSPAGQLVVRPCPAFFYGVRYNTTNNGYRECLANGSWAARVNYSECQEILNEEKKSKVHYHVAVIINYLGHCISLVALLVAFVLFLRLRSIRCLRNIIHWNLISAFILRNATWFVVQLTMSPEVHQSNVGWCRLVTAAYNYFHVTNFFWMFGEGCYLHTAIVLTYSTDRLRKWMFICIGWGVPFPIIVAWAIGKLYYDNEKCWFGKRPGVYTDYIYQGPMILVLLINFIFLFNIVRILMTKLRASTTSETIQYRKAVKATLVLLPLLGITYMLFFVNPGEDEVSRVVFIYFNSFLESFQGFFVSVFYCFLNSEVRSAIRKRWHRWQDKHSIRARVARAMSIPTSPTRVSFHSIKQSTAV
Experiment: Inhibition of [125I]CRH binding to human Corticotropin releasing factor receptor 1.

pKi | SMILES
5.10 | CCCN(CC1CC1)c1nc(C)nc(Nc2c(OC)cc(OC)cc2OC)n1
6.60 | CCCN(CC1CC1)c1cc(Nc2c(Cl)cc(Cl)cc2Cl)nc(C)n1
